According to ChEMBL document CHEMBL1201861, “Genomics of Drug Sensitity in Cancer screening data, Wellcome Trust Sanger Institute”:

Experiments:
Test in all cases: cells
ME-180 = format: functional, cell-based; conditions: Homo sapiens;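 note: cell viability assay measuring growth inhibition of ME-180 cells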
Description: SANGER: Inhibition of human ME-180 cell growth in a cell viability assay.

LB1047-RCC = format: functional, cell-based, Homo sapiens; conditions: Homo sapiens, LB1047-RCC;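 note: inhibition of cell growth, determined with a cell viability assay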
Description: SANGER: Inhibition of human LB1047-RCC cell growth in a cell viability assay.

EW-16 = format: functional, cell-based, Homo sapiens; conditions: Homo sapiens, EW-16;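 note: growth inhibition of human EW-16 cells, read out as cell viability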
Description: SANGER: Inhibition of human EW-16 cell growth in a cell viability assay.

CAL-72 = format: functional, cell-based, Homo sapiens; conditions: Homo sapiens, CAL-72;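 note: cell viability assay measuring inhibition of proliferation in the CAL-72 cell line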
Description: SANGER: Inhibition of human CAL-72 cell growth in a cell viability assay.

Becker = format: functional, cell-based, Homo sapiens; conditions: Homo sapiens, Becker;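 note: growth inhibition of Becker cells, read out with a cell viability assay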
Description: SANGER: Inhibition of human Becker cell growth in a cell viability assay.

HOP-92 = format: functional, cell-based, Homo sapiens; conditions: Homo sapiens, HOP-92;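 note: cell viability readout, with IC50 reflecting inhibition of HOP-92 cell growth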
Description: SANGER: Inhibition of human HOP-92 cell growth in a cell viability assay.

COLO-829 = format: functional, cell-based, Homo sapiens; conditions: Homo sapiens, COLO-829
Description: SANGER: Inhibition of human COLO-829 cell growth in a cell viability assay.

KYSE-270 = format: functional, cell-based, Homo sapiens; conditions: Homo sapiens, KYSE-270;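 note: cell growth inhibition measured with a viability assay in the human KYSE-270 line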
Description: SANGER: Inhibition of human KYSE-270 cell growth in a cell viability assay.

PANC-03-27 = format: functional, cell-based, Homo sapiens; conditions: Homo sapiens, PANC-03-27
Description: SANGER: Inhibition of human PANC-03-27 cell growth in a cell viability assay.

TYK-nu = format: functional, cell-based, Homo sapiens; conditions: Homo sapiens, TYK-nu;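 note: growth inhibition of human TYK-nu cells, read out by a cell viability assay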
Description: SANGER: Inhibition of human TYK-nu cell growth in a cell viability assay.

NMC-G1 = format: functional, cell-based, Homo sapiens; conditions: Homo sapiens, NMC-G1;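 note: growth inhibition of the NMC-G1 cell line, measured with a cell viability read-out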
Description: SANGER: Inhibition of human NMC-G1 cell growth in a cell viability assay.

JVM-2 = format: functional, cell-based; conditions: Homo sapiens;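 note: growth inhibition of JVM-2 cells determined by a cell viability assay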
Description: SANGER: Inhibition of human JVM-2 cell growth in a cell viability assay.

MIA PaCa-2 = format: functional, cell-based, Homo sapiens; conditions: Homo sapiens, MIA PaCa-2;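 note: growth inhibition of MIA PaCa-2 cells, read out with a cell viability assay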
Description: SANGER: Inhibition of human MIA-PaCa-2 cell growth in a cell viability assay.

NB13 = format: functional, cell-based, Homo sapiens; conditions: Homo sapiens, NB13;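 note: cell viability readout measuring growth inhibition of human NB13 cells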
Description: SANGER: Inhibition of human NB13 cell growth in a cell viability assay.

UACC-62 = format: functional, cell-based, Homo sapiens; conditions: Homo sapiens, UACC-62;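 note: growth inhibition of human UACC-62 cells, read out by a cell viability assay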
Description: SANGER: Inhibition of human UACC-62 cell growth in a cell viability assay.

MHH-NB-11 = format: functional, cell-based, Homo sapiens; conditions: Homo sapiens, MHH-NB-11;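 note: growth inhibition of human MHH-NB-11 cells, read out by a cell viability assay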
Description: SANGER: Inhibition of human MHH-NB-11 cell growth in a cell viability assay.

C2BBe1 = format: functional, cell-based, Homo sapiens; conditions: Homo sapiens, C2BBe1;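 note: growth inhibition of C2BBe1 cells, read out through a viability assay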
Description: SANGER: Inhibition of human C2BBe1 cell growth in a cell viability assay.

MDA-MB-175-VII = format: functional, cell-based, Homo sapiens; conditions: Homo sapiens, MDA-MB-175-VII
OE33 = format: functional, cell-based, Homo sapiens; conditions: Homo sapiens, OE33;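 note: growth inhibition of human OE33 cells, measured by a cell viability assay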
Description: SANGER: Inhibition of human OE33 cell growth in a cell viability assay.

GI-ME-N = format: functional, cell-based, Homo sapiens; conditions: Homo sapiens, GI-ME-N;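 note: growth inhibition of human GI-ME-N cells, read out with a cell viability assay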
Description: SANGER: Inhibition of human GI-ME-N cell growth in a cell viability assay.

K562 = format: functional, cell-based; conditions: Homo sapiens
Description: SANGER: Inhibition of human K-562 cell growth in a cell viability assay.

GOTO = format: functional, cell-based, Homo sapiens; conditions: Homo sapiens, GOTO;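 note: growth inhibition of GOTO cells, read out by a cell viability assay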
Description: SANGER: Inhibition of human GOTO cell growth in a cell viability assay.

HTC-C3 = format: functional, cell-based, Homo sapiens; conditions: Homo sapiens, HTC-C3;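 note: inhibition of cell growth, read out with a cell viability assay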
Description: SANGER: Inhibition of human HTC-C3 cell growth in a cell viability assay.

KYSE-140 = format: functional, cell-based, Homo sapiens; conditions: Homo sapiens, KYSE-140;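 note: cell viability assay measuring growth inhibition in human KYSE-140 cells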
Description: SANGER: Inhibition of human KYSE-140 cell growth in a cell viability assay.

TE-11 = format: functional, cell-based, Homo sapiens; conditions: Homo sapiens, TE-11;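 note: growth inhibition of human TE-11 cells, read out by a cell viability assay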
Description: SANGER: Inhibition of human TE-11 cell growth in a cell viability assay.

DU-4475 = format: functional, cell-based; conditions: Homo sapiens
Description: SANGER: Inhibition of human DU-4475 cell growth in a cell viability assay.

HCC1395 = format: functional, cell-based, Homo sapiens; conditions: Homo sapiens, HCC1395;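 note: growth inhibition of HCC1395 cells, read out by a cell viability assay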
Description: SANGER: Inhibition of human HCC1395 cell growth in a cell viability assay.

SK-MEL-28 = format: functional, cell-based; conditions: Homo sapiens;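 note: growth inhibition of human SK-MEL-28 cells, read out with a cell viability assay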
Description: SANGER: Inhibition of human SK-MEL-28 cell growth in a cell viability assay.

KNS-81-FD = format: functional, cell-based, Homo sapiens; conditions: Homo sapiens, KNS-81-FD;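 note: growth inhibition of KNS-81-FD cells, read out with a cell viability assay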
Description: SANGER: Inhibition of human KNS-81-FD cell growth in a cell viability assay.

SW626 = format: functional, cell-based, Homo sapiens; conditions: Homo sapiens, SW626;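 note: growth inhibition of SW626 cells, measured with a cell viability assay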
Description: SANGER: Inhibition of human SW626 cell growth in a cell viability assay.

S-117 = format: functional, cell-based, Homo sapiens; conditions: Homo sapiens, S-117
Description: SANGER: Inhibition of human S-117 cell growth in a cell viability assay.

SNU-5 = format: functional, cell-based; conditions: Homo sapiens;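 note: cell viability readout used to measure growth inhibition in human NCI-SNU-5 cells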
Description: SANGER: Inhibition of human NCI-SNU-5 cell growth in a cell viability assay.

CTV-1 = format: functional, cell-based; conditions: Homo sapiens;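 note: growth inhibition of the cell line, read out with a cell viability assay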
Description: SANGER: Inhibition of human CTV-1 cell growth in a cell viability assay.

786-0 = format: functional, cell-based, Homo sapiens; conditions: Homo sapiens
Description: SANGER: Inhibition of human 786-0 cell growth in a cell viability assay.

HSC-3 = format: functional, cell-based, Homo sapiens; conditions: Homo sapiens, HSC-3
Description: SANGER: Inhibition of human HSC-3 cell growth in a cell viability assay.

D-502MG = format: functional, cell-based, Homo sapiens; conditions: Homo sapiens, D-502MG
Description: SANGER: Inhibition of human D-502MG cell growth in a cell viability assay.

PANC-08-13 = format: functional, cell-based, Homo sapiens; conditions: Homo sapiens, PANC-08-13;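 note: cell growth inhibition, measured with a cell viability assay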
Description: SANGER: Inhibition of human PANC-08-13 cell growth in a cell viability assay.

RH-1 = format: functional, cell-based, Homo sapiens; conditions: Homo sapiens, RH-1;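 note: growth inhibition of human RH-1 cells, read out with a cell viability assay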
Description: SANGER: Inhibition of human RH-1 cell growth in a cell viability assay.

NCI-H1563 = format: functional, cell-based, Homo sapiens; conditions: Homo sapiens, NCI-H1563;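 note: growth inhibition of human NCI-H1563 cells, read out with a cell viability assay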
Description: SANGER: Inhibition of human NCI-H1563 cell growth in a cell viability assay.

RXF 393 = format: functional, cell-based; conditions: Homo sapiens;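 note: growth inhibition of human RXF 393 cells, read out with a cell viability assay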
Description: SANGER: Inhibition of human RXF393 cell growth in a cell viability assay.

HT-1376 = format: functional, cell-based, Homo sapiens; conditions: Homo sapiens, HT-1376
Description: SANGER: Inhibition of human HT-1376 cell growth in a cell viability assay.

HLE = format: functional, cell-based, Homo sapiens; conditions: Homo sapiens, HLE;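 note: growth inhibition of human HLE cells, read out by a cell viability assay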
Description: SANGER: Inhibition of human HLE cell growth in a cell viability assay.

TGBC1TKB = format: functional, cell-based, Homo sapiens; conditions: Homo sapiens, TGBC1TKB;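 note: growth inhibition of TGBC1TKB cells, read out by a cell viability assay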
Description: SANGER: Inhibition of human TGBC1TKB cell growth in a cell viability assay.

CP50-MEL-B = format: functional, cell-based, Homo sapiens; conditions: Homo sapiens, CP50-MEL-B;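 note: growth inhibition of the human cell line, measured with a cell viability read-out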
Description: SANGER: Inhibition of human CP50-MEL-B cell growth in a cell viability assay.

NCI-H1792 = format: functional, cell-based, Homo sapiens; conditions: Homo sapiens, NCI-H1792;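 note: growth inhibition of human NCI-H1792 cells, read out as cell viability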
Description: SANGER: Inhibition of human NCI-H1792 cell growth in a cell viability assay.

SNU-C2B = format: functional, cell-based, Homo sapiens; conditions: Homo sapiens, SNU-C2B;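 note: cell viability readout used to measure compound-driven suppression of SNU-C2B cell proliferation, IC50 marking half-maximal growth inhibition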
Description: SANGER: Inhibition of human SNU-C2B cell growth in a cell viability assay.

D-336MG = format: functional, cell-based, Homo sapiens; conditions: Homo sapiens, D-336MG
Description: SANGER: Inhibition of human D-336MG cell growth in a cell viability assay.

MKN-45 = format: functional, cell-based, Homo sapiens; conditions: Homo sapiens, MKN-45;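 note: growth inhibition of human MKN-45 cells, measured with a cell viability assay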
Description: SANGER: Inhibition of human MKN45 cell growth in a cell viability assay.

SMILES: COc1cc(F)c(F)c(Nc2ccc(I)cc2F)c1NS(=O)(=O)C1(CC(O)CO)CC1 (centres undefined)
- IC50 (ME-180): 1.75 µM
- IC50 (LB1047-RCC): 1.09 µM
- IC50 (EW-16): > 5 µM
- IC50 (CAL-72): > 5 µM
- IC50 (Becker): > 5 µM
- IC50 (HOP-92): 0.683 µM
- IC50 (COLO-829): 1.73 µM
- IC50 (KYSE-270): > 5 µM
- IC50 (PANC-03-27): 0.768 µM
- IC50 (TYK-nu): 0.441 µM
- IC50 (NMC-G1): > 5 µM
- IC50 (JVM-2): > 5 µM
- IC50 (MIA PaCa-2): 2.82 µM
- IC50 (NB13): > 5 µM
- IC50 (UACC-62): > 5 µM
- IC50 (MHH-NB-11): 1.06 µM
- IC50 (C2BBe1): 0.559 µM
- IC50 (MDA-MB-175-VII): 2.57 µM
- IC50 (OE33): > 5 µM
- IC50 (GI-ME-N): 1.58 µM
- IC50 (K562): > 5 µM
- IC50 (GOTO): > 5 µM
- IC50 (HTC-C3): 0.122 µM
- IC50 (KYSE-140): 2.9 µM
- IC50 (TE-11): > 5 µM
- IC50 (DU-4475): 0.0183 µM
- IC50 (HCC1395): > 5 µM
- IC50 (SK-MEL-28): 0.115 µM
- IC50 (KNS-81-FD): 2.41 µM
- IC50 (SW626): 0.279 µM
- IC50 (S-117): > 5 µM
- IC50 (SNU-5): 4.51 µM
- IC50 (CTV-1): 4.96 µM
- IC50 (786-0): 2.37 µM
- IC50 (HSC-3): 0.307 µM
- IC50 (D-502MG): 3.81 µM
- IC50 (PANC-08-13): > 5 µM
- IC50 (RH-1): > 5 µM
- IC50 (NCI-H1563): 4.47 µM
- IC50 (RXF 393): 1.45 µM
- IC50 (HT-1376): > 5 µM
- IC50 (HLE): > 5 µM
- IC50 (TGBC1TKB): > 5 µM
- IC50 (CP50-MEL-B): 0.0215 µM
- IC50 (NCI-H1792): 2.45 µM
- IC50 (SNU-C2B): > 5 µM

SMILES: O=C1N=C(NCc2cccs2)S/C1=C\c1ccc2ncccc2c1
- IC50 (ME-180): > 5 µM
- IC50 (LB1047-RCC): 3.24 µM
- IC50 (EW-16): > 5 µM
- IC50 (CAL-72): > 5 µM
- IC50 (Becker): > 5 µM
- IC50 (HOP-92): > 5 µM
- IC50 (COLO-829): > 5 µM
- IC50 (KYSE-270): > 5 µM
- IC50 (PANC-03-27): > 5 µM
- IC50 (TYK-nu): > 5 µM
- IC50 (NMC-G1): > 5 µM
- IC50 (JVM-2): > 5 µM
- IC50 (MIA PaCa-2): > 5 µM
- IC50 (NB13): > 5 µM
- IC50 (UACC-62): > 5 µM
- IC50 (D-336MG): > 5 µM
- IC50 (MHH-NB-11): > 5 µM
- IC50 (C2BBe1): > 5 µM
- IC50 (MDA-MB-175-VII): > 5 µM
- IC50 (OE33): > 5 µM
- IC50 (GI-ME-N): > 5 µM
- IC50 (K562): > 5 µM
- IC50 (GOTO): > 5 µM
- IC50 (HTC-C3): > 5 µM
- IC50 (KYSE-140): > 5 µM
- IC50 (TE-11): > 5 µM
- IC50 (DU-4475): > 5 µM
- IC50 (HCC1395): > 5 µM
- IC50 (SK-MEL-28): > 5 µM
- IC50 (KNS-81-FD): > 5 µM
- IC50 (SW626): > 5 µM
- IC50 (S-117): > 5 µM
- IC50 (SNU-5): > 5 µM
- IC50 (CTV-1): > 5 µM
- IC50 (786-0): > 5 µM
- IC50 (HSC-3): > 5 µM
- IC50 (D-502MG): > 5 µM
- IC50 (PANC-08-13): > 5 µM
- IC50 (RH-1): > 5 µM
- IC50 (MKN-45): > 5 µM
- IC50 (NCI-H1563): > 5 µM
- IC50 (RXF 393): > 5 µM
- IC50 (HT-1376): > 5 µM
- IC50 (HLE): > 5 µM
- IC50 (TGBC1TKB): > 5 µM
- IC50 (CP50-MEL-B): > 5 µM
- IC50 (NCI-H1792): > 5 µM
- IC50 (SNU-C2B): > 5 µM
